According to US20250354195A1, “METHOD OF SCREENING” (UNIVERSITY OF DUNDEE, priority 2024, published 2025):

Molecular target: T1, GSK3β (Homo sapiens, UniProt P49841+Q96SW2)
T1 construct: genetically engineered using CRISPR/Cas9 technology to endogenously tag GSK3p protein with HiBiT tag at the C-terminus; host or cells: HEK293 cells, CRISPR/Cas9 knock-in of HiBiT at the endogenous GSK3B locus
Experiment: High throughput screening for GSK3β-HiBiT targeted degradation (Nano-Glo HiBiT Lytic luminescence)
Type: cell-based
Conditions: HEK293 cells with endogenously HiBiT-tagged GSK3β, 24 h incubation, products of one-pot plate array (FIG. 1, Method A); for DC50: 0.01-30 μM, read-out: DC50 (half-maximal degradation concentration)
Experimental: High throughput Screening for GSK3 β-HiBiTL: Test compounds were transferred into Echo plate (Beckman, 001-12782, Echo LDV384) using BRAVO automated liquid handling platform which serves as source plate (10 mM stocks in DMSO). Serial dilutions of the compounds were done using Echo550 liquid handler as 30 μM, 10 μM, 3 μM, 1 μM, 0.3 μM, 0.1 μM, 0.03 μM and 0.01 μM in final concentrations in assay plates. One column of each assay plate was reserved for DMSO control treatments. After compounds were serially diluted in assay plates, HEK293 cells (CRL-1573, ATCC) genetically engineered using CRISPR/Cas9 technology to endogenously tag GSK3p protein with HiBiT tag at the C-terminus (Schwinn et al., 2018, CRISPR-mediated tagging of endogenous proteins with a luminescent peptide, ACS Chem. Biol., 13(2), 467-74) were seeded at a density of 5000 cells/well in 50 μL complete media in 384-well TC-grade white plates (Perkin Elmer, Culturplate, 6007619) with the help of Multidrop Combi liquid dispenser and cells were incubated for 24 h with compounds at 37° C. in humidified incubators with 5% CO2. At the end of the treatment, equal volume of Nano-Glo HiBiT Lytic reagent (Promega N3030) supplied with Nano-Glo HiBiT Lytic substrate and LgBiT Protein were added into each well according to manufacturer's instructions, and cells were incubated on an orbital shaker for 15 seconds and for a further 15 minutes at room temperature. Luminescence signals were measured in an appropriate plate reader (PHERAstar FSX, BMG Labtech) (Dixon et al., 2016, NanoLuc complementation reporter optimized for accurate measurement of protein interactions in cells, ACS Chem. Biol., 11, 400-8). Changes in protein abundance upon compound treatment were further analysed by normalising raw luminescence values to DMSO values and fold changes were plotted using for parameter logistic regression with GraphPad Prism (10.1.2).
Furthermore, the present investigators have shown that bifunctional compounds manufactured using the method of the present disclosure may be effective in the uses of bifunctional compounds, for example as PROTACs in targeted protein degradation (TPD). […] GSK3p was targeted for degradation using a binder for GSK3p, and a binder for CRBN; the binders were comprised in molecules comprising moieties for reacting with the orthogonally reactive moieties of the linker. […] The “identifier” identifies the well of the multi-well plate that has been sampled, e.g., AHD2B-1-A1 relates to the top left well in FIG. 1. The DC50 provides an indication of the potency of the bifunctional compound in targeted degradation; Dmax provides an indication of the maximum possible degradation. The use of these metrics is further described in Flexible Fitting of PROTAC Concentration-Response Curves with Changepoint Gaussian Processes, Semenova et al., SLAS Discovery, 2021, 26, 1212-1224.

T1 sequence (P49841 whole entry): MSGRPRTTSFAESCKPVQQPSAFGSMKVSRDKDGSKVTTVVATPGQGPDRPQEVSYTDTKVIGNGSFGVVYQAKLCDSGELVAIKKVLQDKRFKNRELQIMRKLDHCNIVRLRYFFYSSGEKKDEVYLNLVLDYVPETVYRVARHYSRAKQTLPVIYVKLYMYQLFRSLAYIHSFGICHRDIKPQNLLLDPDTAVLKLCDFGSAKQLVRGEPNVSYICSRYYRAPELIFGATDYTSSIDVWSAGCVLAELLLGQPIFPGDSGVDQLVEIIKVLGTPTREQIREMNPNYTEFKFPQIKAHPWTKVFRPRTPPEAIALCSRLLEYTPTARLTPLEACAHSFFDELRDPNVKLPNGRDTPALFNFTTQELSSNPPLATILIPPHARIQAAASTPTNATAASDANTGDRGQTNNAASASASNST
T1 sequence (Q96SW2 whole entry): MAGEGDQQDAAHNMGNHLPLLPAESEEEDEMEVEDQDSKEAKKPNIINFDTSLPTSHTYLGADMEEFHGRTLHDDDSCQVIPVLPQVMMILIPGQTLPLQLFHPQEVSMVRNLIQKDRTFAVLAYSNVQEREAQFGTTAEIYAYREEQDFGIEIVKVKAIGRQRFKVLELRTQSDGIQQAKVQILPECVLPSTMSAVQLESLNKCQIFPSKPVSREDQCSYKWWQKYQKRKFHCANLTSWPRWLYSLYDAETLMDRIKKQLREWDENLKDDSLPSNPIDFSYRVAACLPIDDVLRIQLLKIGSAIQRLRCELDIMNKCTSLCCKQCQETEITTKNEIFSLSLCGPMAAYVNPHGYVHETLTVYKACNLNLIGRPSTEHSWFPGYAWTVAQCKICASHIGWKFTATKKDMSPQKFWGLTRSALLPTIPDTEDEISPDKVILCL
T1 sequence (Q16531 whole entry partner): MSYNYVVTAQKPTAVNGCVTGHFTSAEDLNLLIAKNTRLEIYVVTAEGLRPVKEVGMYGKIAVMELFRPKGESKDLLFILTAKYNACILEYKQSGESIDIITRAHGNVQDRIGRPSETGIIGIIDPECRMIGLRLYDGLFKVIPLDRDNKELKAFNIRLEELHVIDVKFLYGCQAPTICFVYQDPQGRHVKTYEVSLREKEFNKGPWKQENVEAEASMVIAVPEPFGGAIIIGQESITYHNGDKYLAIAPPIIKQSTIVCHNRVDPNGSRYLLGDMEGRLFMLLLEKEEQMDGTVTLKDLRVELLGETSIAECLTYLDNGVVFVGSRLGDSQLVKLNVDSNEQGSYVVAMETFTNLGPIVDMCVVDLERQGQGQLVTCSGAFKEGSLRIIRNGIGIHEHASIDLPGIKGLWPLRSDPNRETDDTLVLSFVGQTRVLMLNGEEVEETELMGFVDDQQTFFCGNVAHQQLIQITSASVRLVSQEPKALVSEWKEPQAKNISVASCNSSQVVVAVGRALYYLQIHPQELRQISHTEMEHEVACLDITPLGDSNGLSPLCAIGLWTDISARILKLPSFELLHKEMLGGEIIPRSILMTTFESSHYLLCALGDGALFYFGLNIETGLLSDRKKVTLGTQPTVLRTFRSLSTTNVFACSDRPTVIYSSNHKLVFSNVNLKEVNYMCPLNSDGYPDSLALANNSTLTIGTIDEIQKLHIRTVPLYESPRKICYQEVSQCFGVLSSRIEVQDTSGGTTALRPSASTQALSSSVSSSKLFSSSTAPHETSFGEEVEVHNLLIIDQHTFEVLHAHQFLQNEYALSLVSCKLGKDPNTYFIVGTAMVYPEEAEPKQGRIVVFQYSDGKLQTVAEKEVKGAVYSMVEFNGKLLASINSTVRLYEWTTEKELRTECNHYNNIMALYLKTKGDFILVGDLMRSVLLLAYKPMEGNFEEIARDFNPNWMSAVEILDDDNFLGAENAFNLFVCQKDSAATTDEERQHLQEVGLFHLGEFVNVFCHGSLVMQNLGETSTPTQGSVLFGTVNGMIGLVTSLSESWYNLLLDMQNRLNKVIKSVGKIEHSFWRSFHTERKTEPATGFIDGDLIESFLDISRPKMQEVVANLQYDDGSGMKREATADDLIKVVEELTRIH

Row | DC50 | Dmax (maximal effect) | Structure (SMILES)
1 | > 10 µM | <30% | COc1ccc(-c2ocnc2C(=O)NCCCn2cc(-c3ccc(CN4CCN(Cc5ccc(C(=O)NC6CCC(=O)NC6=O)nc5)CC4)cn3)nn2)cc1Cl (stereo not drawn) [AHD2B-1-F2]
2 | > 10 µM | <30% | COc1ccc(-c2ocnc2C(=O)NCCCn2cc(CCCCCN3CCCN(Cc4ccc(N5CCC(=O)NC5=O)cc4)CC3)nn2)cc1Cl [AHD2B-1-G9]
3 | > 10 µM | <30% | COc1ccc(-c2ocnc2C(=O)NCCCn2cc(-c3cccc(CN4CCN(Cc5cccc(N6CCC(=O)NC6=O)c5)CC4)n3)nn2)cc1Cl [AHD2B-1-A8]
4 | > 10 µM | <30% | COc1ccc(-c2ocnc2C(=O)NCCCn2cc(-c3cccc(CN4CCN(CC(=O)N[C@H](C(=O)N5C[C@H](O)C[C@H]5C(=O)NCc5ccc(-c6scnc6C)cc5)C(C)(C)C)CC4)n3)nn2)cc1Cl [AHD2B-1-B8]
5 | 0.25 µM | 32% | COc1ccc(-c2ocnc2C(=O)NCCCn2cc(CCCOc3ccc(CN4CCN(Cc5ccc(C(=O)NC6CCC(=O)NC6=O)nc5)CC4)cc3)nn2)cc1Cl (stereo not drawn) [AHD2B-1-F4]
6 | > 10 µM | <30% | COc1ccc(-c2ocnc2C(=O)NCCCn2cc(COc3ccc(CN4CC5(CN(CC(=O)N[C@H](C(=O)N6C[C@H](O)C[C@H]6C(=O)NCc6ccc(-c7scnc7C)cc6)C(C)(C)C)C5)C4)cc3)nn2)cc1Cl [AHD2B-1-B11]
7 | > 10 µM | <30% | COc1ccc(-c2ocnc2C(=O)NCCCn2cc(COCCOCCN3CCN(CC(=O)N[C@H](C(=O)N4C[C@H](O)C[C@H]4C(=O)NCc4ccc(-c5scnc5C)cc4)C(C)(C)C)CC3)nn2)cc1Cl [AHD2B-1-B10]
8 | > 10 µM | <30% | COc1ccc(-c2ocnc2C(=O)NCCCn2cc(CCCN3CCN(Cc4ccc(N5CCC(=O)NC5=O)cc4)CC3)nn2)cc1Cl [AHD2B-1-G12]
9 | 1.1 µM | 34% | COc1ccc(-c2ocnc2C(=O)NCCCn2cc(COc3ccc(CN4CCC5(C4)CN(Cc4ccc(C(=O)NC6CCC(=O)NC6=O)nc4)C5)cc3)nn2)cc1Cl (stereo not drawn) [AHD2B-1-F6]
10 | > 10 µM | <30% | COc1ccc(-c2ocnc2C(=O)NCCCn2cc(-c3ccc(CN4CCN(Cc5ccc(N6CCC(=O)NC6=O)cc5)CC4)cn3)nn2)cc1Cl [AHD2B-1-G2]
11 | > 10 µM | <30% | COc1ccc(-c2ocnc2C(=O)NCCCn2cc(CCCN3CCN(Cc4ccc(C(=O)NC5CCC(=O)NC5=O)nc4)CC3)nn2)cc1Cl (stereo not drawn) [AHD2B-1-F12]
12 | 7.1 µM | 39% | COc1ccc(-c2ocnc2C(=O)NCCCn2cc(CCCCCN3CCCN(Cc4ccc(C(=O)NC5CCC(=O)NC5=O)c(F)c4)CC3)nn2)cc1Cl (stereo not drawn) [AHD2B-1-C9]
13 | 1.9 µM | 56% | COc1ccc(-c2ocnc2C(=O)NCCCn2cc(COc3ccc(CN4CC5(C4)CN(Cc4ccc(C(=O)NC6CCC(=O)NC6=O)c(F)c4)C5)cc3)nn2)cc1Cl (stereo not drawn) [AHD2B-1-C11]
14 | > 10 µM | <30% | COc1ccc(-c2ocnc2C(=O)NCCCn2cc(CCCCCN3CCCN(Cc4cccc(N5CCC(=O)NC5=O)c4)CC3)nn2)cc1Cl [AHD2B-1-A9]
15 | > 10 µM | <30% | COc1ccc(-c2ocnc2C(=O)NCCCn2cc(COC3CCN(Cc4cccc(N5CCC(=O)NC5=O)c4)CC3)nn2)cc1Cl [AHD2B-1-A5]
16 | < 0.25 µM | 41% | COc1ccc(-c2ocnc2C(=O)NCCCn2cc(CCCOc3ccc(CN4CCN(Cc5ccc6c(N7CCC(=O)NC7=O)nn(C)c6c5)CC4)cc3)nn2)cc1Cl [AHD2B-1-D4]
17 | > 10 µM | <30% | COc1ccc(-c2ocnc2C(=O)NCCCn2cc(CCCOc3ccc(CN4CCN(CC(=O)N[C@H](C(=O)N5C[C@H](O)C[C@H]5C(=O)NCc5ccc(-c6scnc6C)cc5)C(C)(C)C)CC4)cc3)nn2)cc1Cl [AHD2B-1-B4]

Row | DC50 | Dmax (maximal effect) | Structure (SMILES)
18 | > 10 µM | <30% | COc1ccc(-c2ocnc2C(=O)NCCCn2cc(CCCOc3ccc(CN4CCN(Cc5ccc(N6CCC(=O)NC6=O)cc5)CC4)cc3)nn2)cc1Cl [AHD2B-1-G4]
19 | > 10 µM | <30% | COc1ccc(-c2ocnc2C(=O)NCCCn2cc(-c3ccc(CN4CCN(CC(=O)N[C@H](C(=O)N5C[C@H](O)C[C@H]5C(=O)NCc5ccc(-c6scnc6C)cc5)C(C)(C)C)CC4)cn3)nn2)cc1Cl [AHD2B-1-B2]
20 | > 10 µM | <30% | COc1ccc(-c2ocnc2C(=O)NCCCn2cc(COCCOCCN3CCN(Cc4ccc(N5CCC(=O)NC5=O)cc4)CC3)nn2)cc1Cl [AHD2B-1-G10]
21 | 0.55 µM | 35% | COc1ccc(-c2ocnc2C(=O)NCCCn2cc(COC3CCN(Cc4ccc5c(N6CCC(=O)NC6=O)nn(C)c5c4)CC3)nn2)cc1Cl [AHD2B-1-D5]
22 | > 10 µM | <30% | COc1ccc(-c2ocnc2C(=O)NCCCn2cc(CCCN3CCN(CC(=O)N[C@H](C(=O)N4C[C@H](O)C[C@H]4C(=O)NCc4ccc(-c5scnc5C)cc4)C(C)(C)C)CC3)nn2)cc1Cl [AHD2B-1-B12]
23 | > 10 µM | <30% | COc1ccc(-c2ocnc2C(=O)NCCCn2cc(CCCCCN3CCCN(Cc4ccc(C(=O)NC5CCC(=O)NC5=O)nc4)CC3)nn2)cc1Cl (stereo not drawn) [AHD2B-1-F9]
24 | > 10 µM | <30% | COc1ccc(-c2ocnc2C(=O)NCCCn2cc(COc3ccc(CN4CCC5(C4)CN(Cc4ccc(N6CCC(=O)NC6=O)cc4)C5)cc3)nn2)cc1Cl [AHD2B-1-G6]
25 | > 10 µM | <30% | COc1ccc(-c2ocnc2C(=O)NCCCn2cc(COc3ccc(CN4CC5(C4)CN(Cc4ccc(C(=O)NC6CCC(=O)NC6=O)nc4)C5)cc3)nn2)cc1Cl (stereo not drawn) [AHD2B-1-F11]
26 | > 10 µM | <30% | COc1ccc(-c2ocnc2C(=O)NCCCn2cc(COc3ccc(CN4CC5(C4)CN(Cc4cccc(N6CCC(=O)NC6=O)c4)C5)cc3)nn2)cc1Cl [AHD2B-1-A11]
27 | > 10 µM | <30% | COc1ccc(-c2ocnc2C(=O)NCCCn2cc(CCCCCN3CCN(Cc4ccc(N5CCC(=O)NC5=O)cc4)CC3)nn2)cc1Cl [AHD2B-1-G7]
28 | > 10 µM | <30% | COc1ccc(-c2ocnc2C(=O)NCCCn2cc(CCCCCN3CCN(Cc4ccc(C(=O)NC5CCC(=O)NC5=O)nc4)CC3)nn2)cc1Cl (stereo not drawn) [AHD2B-1-F7]
29 | > 10 µM | <30% | COc1ccc(-c2ocnc2C(=O)NCCCn2cc(CCCCN3CCN(Cc4cccc(N5CCC(=O)NC5=O)c4)CC3)nn2)cc1Cl [AHD2B-1-A1]
30 | > 10 µM | <30% | COc1ccc(-c2ocnc2C(=O)NCCCn2cc(COCCOCCN3CCN(Cc4cccc(N5CCC(=O)NC5=O)c4)CC3)nn2)cc1Cl [AHD2B-1-A10]
31 | > 10 µM | <30% | COc1ccc(-c2ocnc2C(=O)NCCCn2cc(CCCN3CCN(Cc4ccc(C(=O)NC5CCC(=O)NC5=O)c(F)c4)CC3)nn2)cc1Cl (stereo not drawn) [AHD2B-1-C12]
32 | > 10 µM | <30% | COc1ccc(-c2ocnc2C(=O)NCCCn2cc(COC3CCN(Cc4ccc(N5CCC(=O)NC5=O)cc4)CC3)nn2)cc1Cl [AHD2B-1-G5]
33 | > 10 µM | <30% | COc1ccc(-c2ocnc2C(=O)NCCCn2cc(CCCCCN3CCN(Cc4cccc(N5CCC(=O)NC5=O)c4)CC3)nn2)cc1Cl [AHD2B-1-A7]
